Measured values as given in ChEMBL document CHEMBL1201862, “PubChem BioAssay data set” (2004).
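Method: 48-hour compound exposure of cells in 96-well plates, five concentrations, linear interpolation of endpoints. Here, GI50 denotes the concentration required for 50% inhibition of growth.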 The source made the active and inactive calls. Rule as the data show it: active = GI50 up to about 1.1 µM and inactive = higher.

Assays:
Assay in all cases: inhibition of tumour cell growth, NCI panel, 48 h
[1] = tested on: U-251
[2] = tested on: DMS-114
[3] = tested on: OVCAR-8
[4] = tested on: RXF 393
[5] = tested on: HCC 2998
[6] = tested on: DLD-1
[7] = tested on: OVCAR-5
[8] = tested on: A498
[9] = tested on: IGROV-1
[10] = tested on: UACC-62
[11] = tested on: SF-295
[12] = tested on: NCI-H23
[13] = tested on: SNB-75
[14] = tested on: HOP-18
[15] = tested on: MOLT-4
[16] = tested on: ACHN
[17] = tested on: EKVX
[18] = tested on: CAKI-1
[19] = tested on: RXF 631
[20] = tested on: HCT-15
[21] = tested on: SK-OV-3
[22] = tested on: M19-MEL
[23] = tested on: SK-MEL-28
[24] = tested on: HOP-92
[25] = tested on: SNB-78
[26] = tested on: COLO 205
[27] = tested on: DMS-273
[28] = tested on: NCI-H226
[29] = tested on: SW-620
[30] = tested on: SK-MEL-5
[31] = tested on: NCI-H522
[32] = tested on: RPMI-8226
[33] = tested on: UACC-257
[34] = tested on: HOP-62
[35] = tested on: KM-20L2
[36] = tested on: NCI-H460
[37] = tested on: KM12
[38] = tested on: OVCAR-3
[39] = tested on: A549
[40] = tested on: LOX IMVI
[41] = tested on: HCT-116
[42] = tested on: HL-60
[43] = tested on: SK-MEL-2
[44] = tested on: SNB-19
[45] = tested on: K562
[46] = tested on: CCRF-CEM
[47] = tested on: SN12C
[48] = tested on: UO-31
[49] = tested on: TK-10
[50] = tested on: HT-29
[51] = tested on: SF-268
[52] = tested on: Malme-3M

Measured: GI50

C=C1CC[C@@H](Br)C(C)(C)[C@]12CCC(C)(O)C(Cl)C2 (some centres not stated)
inactive: [1] 16.2 µM | [2] 17.2 µM | [3] 18.7 µM | [4] 17.5 µM | [5] 23.3 µM | [6] 17.5 µM | [7] 19.5 µM | [8] 28.9 µM | [9] 23.1 µM | [10] 18.5 µM | [11] 20.6 µM | [12] 26.1 µM | [13] 31 µM | [14] 18.8 µM | [15] 18.7 µM | [16] 20.9 µM | [17] 19.1 µM | [18] 15.8 µM | [19] 18.5 µM | [21] 19.5 µM | [22] 18.8 µM | [23] 20 µM | [24] 23 µM | [25] 52.5 µM | [26] 16 µM | [27] 18.8 µM | [28] 16.7 µM | [29] 14.2 µM | [30] 20.9 µM | [31] 16.6 µM | [32] 18.8 µM | [33] 17.9 µM | [34] 23.3 µM | [35] 18.3 µM | [36] 17 µM | [37] 18.2 µM | [38] 20.3 µM | [39] 20 µM | [40] 19.1 µM | [41] 18.1 µM | [42] 19.9 µM | [43] 18.5 µM | [44] 19.8 µM | [45] 22.4 µM | [46] 24.2 µM | [47] 16.4 µM | [48] 18.1 µM | [49] 29.2 µM | [50] 16.8 µM | [51] 17.4 µM | [52] 30.3 µM
16 µM: [20]
